Test results taken from patent publication US9102648B1, “Bioavailable diacylhydrazine ligands for modulating the expression of exogenous genes via an ecdysone receptor complex” (Intrexon Corporation, priority 2003, dated 2015).

Columns and labels:
Caco-2 monolayers = assay: Bi-directional permeability, CACO-2; format: in vitro ADME
Procedure: (§1) Caco-2 monolayers were grown to confluence on collagen-coated, microporous, polycarbonate membranes in 12-well Costar Transwell plates. Details of the plates and their certification are shown below. The permeability assay buffer was Hank's Balanced Salt Solution containing 10 mM HEPES and 15 mM glucose at a pH of 7.0±0.2. The dosing solution concentration was 10 μM in assay buffer. At each time point, 1 and 2 hours, a 200-μL aliquot was taken from the receiver chamber and replaced with fresh assay buffer. Cells were dosed on the apical side (A-to-B) or basolateral side (B-to-A) and incubated at 37° C. with 5% CO2 and 90% relative humidity. Each determination was performed in duplicate. The important experimental parameters are outlined below. Permeability through a cell-free (blank) membrane was studied to determine non-specific binding and free diffusion of the compound through the device. Lucifer yellow flux was also measured for each monolayer after being subjected to the test compounds to ensure no damage was inflicted to the cell monolayers during the flux period.
(§2) All samples were assayed by LC/MS using electrospray ionization. Typical LC/MS conditions are as follows:
(§3) dCr/dt is the cumulative concentration in the receiver compartment versus time in M s^−1.
(§4) Vr is the volume of the receiver compartment in cm^3.
(§5) Vd is the volume of the donor compartment in cm^3.
(§6) A is the area of the cell monolayer (1.13 cm^2 for 12-well Transwell).
(§7) C0 is the concentration of the dosing solution in M.
(§8) Cr^final is the cumulative receiver concentration in M at the end of the incubation period.
(§9) Cd^final is the concentration of the donor in M at the end of the incubation period.

[1] = Bi-directional permeability, CACO-2; format: in vitro ADME; settings: human, Caco-2, Papp × 10^−6 cm/s (plate certification)
Procedure: as §1, §2, §3, §4, §5, §6, §7, §8, §9

[2] = Partition coefficient Log (D), 1-octanol / pH 7.4 buffer; format: physicochemical
Procedure: The partition coefficient, Log (D), between water-saturated 1-octanol and pH 7.4 buffer was determined for the test compounds. The buffer was prepared as described in section 2. A 12 μl aliquot of a 10 mM stock solution in DMSO was introduced to a vial containing 0.60 mL of octanol and 0.60 mL of buffer at room temperature. Testosterone was also added to a final concentration of 100 μM as an internal control. The solution was vortexed for 60 minutes and centrifuged at 10,000 rpm for 10 minutes. The organic and aqueous layers were removed. Serial dilutions of the organic layer were made with 50% methanol except for the initial dilution, which was made in 100% methanol. Serial dilutions of the aqueous layer were made in the pH 7.4 buffer. The diluted samples were then assayed by LC/MS for the compound as well as for testosterone. The Log of the ratio of peak area responses was calculated to obtain the Log (D). Typical Log D values for testosterone are from 3.0-3.3.

[3] = Aqueous equilibrium solubility in pH 7.4 buffer; settings: pH 7.4 aqueous buffer, room temperature, equilibrium
Procedure: Equilibrium solubility was measured in pH 7.4 aqueous buffer. The buffer was prepared by adjusting the pH of a 0.07 M solution of NaH2PO4 to pH 7.4 with 10 N NaOH. […] At least 1 mg of powder was combined with 1 mL of buffer to make >1 mg/mL mixture. These samples were shaken for ≧2 hours and left to stand overnight at room temperature. The samples were then filtered through a 0.45-μm Nylon syringe filter that was first saturated with the sample. The filtrate was sampled twice, consecutively. The filtrate was assayed by HPLC against standards prepared in methanol.

[4] = biological target: T1, Bombyx mori EcR (VP16 fusion, CVBE switch construct) (Bombyx mori, UniProt P49881); assay: Z3 Assay (HEK-293 cells with CVBE and 6XEcRE LacZ, β-galactosidase reporter); settings: 33 uM ligand; ligand treated / DMSO treated cells; average of two wells
T1 sequence (P49881 86-606): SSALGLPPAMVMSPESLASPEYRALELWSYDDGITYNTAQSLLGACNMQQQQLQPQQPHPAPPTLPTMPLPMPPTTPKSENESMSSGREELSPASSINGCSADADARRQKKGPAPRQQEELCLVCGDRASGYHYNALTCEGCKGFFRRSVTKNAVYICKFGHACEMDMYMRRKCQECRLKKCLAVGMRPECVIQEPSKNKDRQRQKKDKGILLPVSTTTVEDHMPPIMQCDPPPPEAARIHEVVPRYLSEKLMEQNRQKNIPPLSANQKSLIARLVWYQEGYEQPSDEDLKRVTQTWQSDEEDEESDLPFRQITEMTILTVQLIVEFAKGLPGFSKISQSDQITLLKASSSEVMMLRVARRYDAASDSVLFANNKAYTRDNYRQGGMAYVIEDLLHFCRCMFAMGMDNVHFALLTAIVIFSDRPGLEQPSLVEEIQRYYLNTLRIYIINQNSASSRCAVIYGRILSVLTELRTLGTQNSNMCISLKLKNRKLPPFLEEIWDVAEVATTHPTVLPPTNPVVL
T1 sequence (P19793 1-462 partner): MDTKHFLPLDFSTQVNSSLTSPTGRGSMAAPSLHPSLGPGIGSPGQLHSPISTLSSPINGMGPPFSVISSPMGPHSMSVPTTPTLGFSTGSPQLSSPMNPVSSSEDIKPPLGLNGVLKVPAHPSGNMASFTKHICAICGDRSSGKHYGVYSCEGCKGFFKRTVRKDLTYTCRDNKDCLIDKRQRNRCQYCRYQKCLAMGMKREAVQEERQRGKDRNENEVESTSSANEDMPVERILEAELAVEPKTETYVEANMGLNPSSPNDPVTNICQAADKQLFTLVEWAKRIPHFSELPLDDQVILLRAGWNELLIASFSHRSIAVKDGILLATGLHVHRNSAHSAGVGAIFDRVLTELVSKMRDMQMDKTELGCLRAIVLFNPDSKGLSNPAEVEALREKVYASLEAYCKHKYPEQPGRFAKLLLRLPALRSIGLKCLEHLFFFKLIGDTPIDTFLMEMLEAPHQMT

[5] = Determination of LC Log P (experimental); format: physicochemical; settings: diacylhydrazine log P standards (log P known experimentally)
Procedure: Liquid chromatography retention times (RT) are measured for each substance using the conditions described below. A linear equation is derived relating RT to log P is developed from the data for the log P standards. The log P for the test compound is calculated from the log P/retention time equation.

[6] = biological target: GAL4 DBD (1-147)-CfEcR(DEF)/VP16AD-βRXREF-LmUSPEF (Choristoneura fumiferana, UniProt O77240); assay: cell-based; settings: for 27-63 assay Rel Max FI: maximum fold induction at any concentration relative to that of GS-E ligand, CHO 27-63 cells; for fold induction at 33 µM: read-out: Fold Induction, 27-63 Assay, 33 uM
[7] = tested on: mutated ecdysone receptor-based gene switch; assay: In vivo SEAP induction, ligand by IP injection; set-up: species or system C57BL/6 mouse; settings: IP 26 nmol ligand
Procedure: Applicants' ligands are useful in various applications including gene therapy, expression of proteins of interest in host cells, production of transgenic organisms, and cell-based assays. In vivo induction of a reporter enzyme with various ligands of the present invention was evaluated in a C57BL/6 mouse model system containing a gene switch.
Each element of the gene switch was on a separate plasmid. Receptor expression was under the control of a CMV promoter (SEQ ID NO: 15). Induction was evaluated by the amount of reporter protein expressed in the presence of ligand.
SEAP expression in serum of mice was evaluated after electroporation of the gene switch into mouse quadriceps. Mice were anesthetized with 2 μL/g of a mixture of ketamine (100 mg/mL) and xylazine (20 mg/mL). Animals were then shaved, DNA vectors injected into the muscle in a volume of 2×50 μL polyglutamic acid (12 mg/mL water), electrode conductivity gel applied, and an electrode caliber (1 cm×1 cm; model 384) was placed on hind leg. The muscle was electroporated with 200 V/cm, 8 times, for 20 msec/pulse, at 1 sec time intervals. The transverse electrical field direction was reversed after the animals received half of the pulses. Electroporation was performed with an ECM 830 electroporator from BTX Molecular Delivery Systems.
In some experiments mice received an intraperitoneal injection (IP) of 2.6 μmol of ligand in 50 μL of DMSO 3 days after electroporation of the gene switch. In other experiments the concentration of ligand was decrease to 26 nmol/50 μL of DMSO/mouse. SEAP expression was evaluated 2-11 days after ligand administration. In other experiments ligand was administered in rodent chow. The chow was prepared by dissolving 2 g of ligand in 20 mL of acetone and adding it to 1 kg of LabDiet 5010 autoclavable chow from Purina Mills. This was thoroughly mixed in a Hobart mixer and then mixed for an additional 15 min in a Cross Blend mixer. Animals received chow ad libitum for 1, 2, or 3 days. All values are the average from four animals. Background SEAP in sera from animals treated with vector alone without ligand addition was 0-11 ng/mL serum.
Mouse serum was obtained by centrifugation of blood acquired by retroorbital bleeding with a small glass capillary tube. SEAP quantification was determined using a Clontech Great Escape chemiluminescence kit and by comparison with the Clontech SEAP standard.
Table 9: In vivo evaluation of ligand-mediated induction of a mutated ecdysone receptor-based gene switch. SEAP expression in serum of mice was evaluated after electroporation of the gene expression cassettes into mouse quadriceps. Mice received an IP injection of 2.6 μmol of ligand 3 days after electroporation. SEAP expression was evaluated 2-11 days after ligand administration. Each dose group was composed of four animals. Percentage of GS™-E ligand induction was determined by averaging SEAP expression from four animals divided by the average SEAP expression induced with GS™-E ligand and then multiplying by 100.
Table 10: Induction of gene switch expression with low concentrations of ligand. SEAP expression in serum of mice was evaluated after electroporation of the gene expression cassettes into mouse quadriceps. Mice received an IP injection of 26 nmol of ligand or 130 nmol GS™-E ligand 3 days after electroporation. SEAP expression was evaluated 2-7 days after ligand administration. Values are the average from 4 animals.

Row | Compound | EC50 [6] [nM] | 27-63 assay Rel Max FI [6] | fold induction at 33 µM [6] | Secreted Alkaline Phosphatase Day 2 [7] | Secreted Alkaline Phosphatase Day 3 [7] | further results
1 | CC(C)NCC(O)COc1cccc2ccccc12 (stereo not drawn) [Propranolol, reference compound] | – | – | – | – | – | Papp × 10^−6 cm/s (plate certification) (Caco-2 monolayers; human, Caco-2): 19 10^−6 cm/s; Papp [1]: 20 ×10⁻⁶ cm/s
2 | CC(O)c1ccc(C(=O)NN(C(=O)c2cc(CO)cc(CO)c2)C(C)(C)C)cc1 (stereo not drawn) [RG-100021] | – | – | – | – | – | Log(D) Octanol/pH 7.4 ([2]; water-saturated 1-octanol / pH 7.4 buffer, room temperature): 0.8; Papp Blank (Caco-2 monolayers; Caco-2): 43.0 10^−6 cm/s; Papp, A-to-B Avg (Caco-2 monolayers; Caco-2): 0.22 10^−6 cm/s; Papp, A-to-B Rep. 1 (Caco-2 monolayers; Caco-2): 0.21 10^−6 cm/s; Papp, A-to-B Rep. 2 (Caco-2 monolayers; Caco-2): 0.22 10^−6 cm/s; Papp, B-to-A Avg (Caco-2 monolayers; Caco-2): 0.93 10^−6 cm/s; Papp, B-to-A Rep. 1 (Caco-2 monolayers; Caco-2): 0.91 10^−6 cm/s; Papp, B-to-A Rep. 2 (Caco-2 monolayers; Caco-2): 0.95 10^−6 cm/s; Significant Efflux (Caco-2 monolayers; Caco-2): No; Solubility pH 7.4 [3]: ≧1.0 mg/mL; Fold Induction, Z3 Assay, 33 uM [4]: 1
3 | Cc1cc(C)cc(C(=O)N(NC(=O)c2cccc(O)c2C)C(C)(C)C)c1 [RG-102208, reference compound] | – | – | – | – | – | logP [5]: 2.9
4 | CCc1c(C(=O)NN(C(=O)c2ccc(F)cc2Cl)C(C)(C)C)ccc2c1OCOC2 [RG-115002, reference compound] | – | – | – | – | – | logP [5]: 3.5
5 | CCc1ccc(C(=O)NN(C(=O)c2cc(Cl)cc(Cl)c2)C(C)(C)C)c(F)c1 [RG-115372, reference compound] | – | – | – | – | – | logP [5]: 5.02
6 | CCC(N(NC(=O)c1ccc2c(c1C)OCCO2)C(=O)c1cc(C)cc(C)c1)C(C)(C)C (stereo not drawn) [RG-115856, 3,5-Dimethyl-benzoic acid N-(1-ethyl-2,2-dimethyl-propyl)-N′-(5-methyl-2,3-dihydro-benzo[1,4]dioxine-6-carbonyl)-hydrazide] | 3 | 0.879 | 1760 | 2,292 ng/ml mouse sera | 2,350 ng/ml mouse sera | –
7 | CCC(N(NC(=O)c1ccc2c(c1C)OCCO2)C(=O)c1cc(OC)c(C)c(OC)c1)C(C)(C)C (stereo not drawn) [RG-115857, 3,5-Dimethoxy-4-methyl-benzoic acid N-(1-ethyl-2,2-dimethyl-propyl)-N′-(5-methyl-2,3-dihydro-benzo[1,4]dioxine-6-carbonyl)-hydrazide] | 13 | 1.140 | 328 | 574 ng/ml mouse sera | 401 ng/ml mouse sera | –
8 | CCc1c(C(=O)NN(C(=O)c2cc(C)cc(C)c2)C(CC)C(C)(C)C)ccc2c1OCCO2 (stereo not drawn) [RG-115858, 3,5-dimethyl-benzoic acid N′-(5-ethyl-2,3-dihydro-benzo[1,4]dioxine-6-carbonyl)-N-(1-ethyl-2,2-dimethyl-propyl)-hydrazide] | 5 | 0.915 | 182 | 13,661 ng/ml mouse sera | 11,820 ng/ml mouse sera | –
9 | CCCC(N(NC(=O)c1ccc2c(c1C)OCCO2)C(=O)c1cc(C)cc(C)c1)C(C)(C)C (stereo not drawn) [RG-115864, 3,5-Dimethyl-benzoic acid N-(1-tert-butyl-butyl)-N′-(5-methyl-2,3-dihydro-benzo[1,4]dioxine-6-carbonyl)-hydrazide] | 4 | 0.979 | 1260 | 6,722 ng/ml mouse sera | 5,652 ng/ml mouse sera | –
10 | C[C@]12CC[C@H]3[C@@H](CCC4=CC(=O)CC[C@@]43C)[C@@H]1CC[C@@H]2O [testosterone, Testosterone, reference compound] | – | – | – | – | – | logD ([2]; internal control, octanol / pH 7.4 buffer, read-out: Typical Log D values): 3 to 3.3
11 | Lucifer Yellow [reference compound] | – | – | – | – | – | Papp × 10^−6 cm/s (plate certification) (Caco-2 monolayers; Caco-2 plate TW12, first certification column (seed date Jun. 11, 2002)): 0.14 10^−6 cm/s; Papp × 10^−6 cm/s (plate certification) (Caco-2 monolayers; Caco-2 plate TW12, second certification column (seed date Jun. 18, 2002)): 0.12 10^−6 cm/s
